Laboratory results from PubChem BioAssay (NCI).
“And” between values parts separate entries of the source, which are not always exact repeats. Equal values may be shown once.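 Results reflect a 48-hour exposure of cells in 96-well plates to compound at five concentrations. GI50 = concentration required for 50% inhibition of growth. Definition used: TGI = concentration required for complete inhibition of growth.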

Columns and labels:
Test in all cases: NCI tumour cell line growth inhibition, 48 h
NCI/ADR-RES ovarian = test system: NCI/ADR-RES ovarian
HCT-116 colon = test system: HCT-116 colon
NCI-H226 lung = test system: NCI-H226 lung
OVCAR-5 ovarian = test system: OVCAR-5 ovarian
HOP-62 NSCLC = test system: HOP-62 NSCLC
OVCAR-8 ovarian = test system: OVCAR-8 ovarian
UACC-62 melanoma = test system: UACC-62 melanoma
LOX IMVI melanoma = test system: LOX IMVI melanoma
RPMI-8226 leukemia = test system: RPMI-8226 leukemia
SNB-75 CNS = test system: SNB-75 CNS

Structure (SMILES) | GI50 (NCI/ADR-RES ovarian) [µM] | TGI (NCI/ADR-RES ovarian) [µM] | GI50 (HCT-116 colon) [µM] | TGI (HCT-116 colon) | GI50 (NCI-H226 lung) [µM] | TGI (NCI-H226 lung) | GI50 (OVCAR-5 ovarian) [µM] | TGI (OVCAR-5 ovarian) | GI50 (HOP-62 NSCLC) [µM] | TGI (HOP-62 NSCLC) | GI50 (OVCAR-8 ovarian) [µM] | TGI (OVCAR-8 ovarian) | GI50 (UACC-62 melanoma) [µM] | TGI (UACC-62 melanoma) | GI50 (LOX IMVI melanoma) [µM] | TGI (LOX IMVI melanoma) | GI50 (RPMI-8226 leukemia) [µM] | TGI (RPMI-8226 leukemia) [µM] | GI50 (SNB-75 CNS) [µM] | TGI (SNB-75 CNS)
Nc1ncnc2sc(=S)c3c(c12)CCC3 | 30.1 | > 100 | 31.8 | > 100 µM | 28.7 | > 100 µM | 42 | > 100 µM | 46.4 | > 100 µM | 37.7 | > 100 µM | 27.8 | 85.2 µM | 31.8 | > 100 µM | 16.8 | 55.3 | 88.7 | > 100 µM
CC[C@](C)(O)C(=O)O[C@H]1C(=O)O[C@@H]2C[C@H]3C(C)=CC(=O)[C@@H](O)[C@]3(C)[C@H]3[C@@]4(O)OC[C@]32[C@@H]1[C@@H](C)[C@H]4O | 0.036 |  | 0.22 | 0.957 µM and 0.376 µM | 0.203 | 0.664 µM and 0.435 µM | 0.762 | 8.16 µM and 6.86 µM | 0.165 | 1.19 µM and 0.368 µM | 0.164 | 1.74 µM and 0.541 µM | 0.149 | 0.705 µM and 0.178 µM | 0.0563 | 0.278 µM and 0.545 µM | 0.0928 |  | 0.258 | 1.02 µM and 0.17 µM
COc1ccc(Cn2nc(-c3cc(OC)c(OC)c(OC)c3)c3c2CCc2cnoc2-3)cc1OC | 3.02 | 21.5 | 3.63 | 44 µM | 6.85 | 56.1 µM | 26.6 | > 100 µM | 6.35 | 82.7 µM | 19.6 | > 100 µM | 3.78 | 56.5 µM | 3.02 | > 100 µM | 2.69 | 23 | 1.39 | 5.64 µM
CCn1c(-c2nonc2N)nc2cncc(C(=O)N3CCNCC3)c21 | > 25 | > 25 | > 25 | > 25 µM | > 25 | > 25 µM | > 25 | > 25 µM | > 25 | > 25 µM | > 25 | > 25 µM | > 25 | > 25 µM | > 25 | > 25 µM | > 25 | > 25 | > 25 | > 25 µM
CCN(CC)CCOc1ccc(C(=C(C)c2ccc(Cl)cc2)c2ccc(OCCN(CC)CC)cc2)cc1 | 0.657 | 1.4 | 0.591 | 1.16 µM | 2.54 | 7.32 µM | 0.664 | 1.57 µM | 0.995 | 2.91 µM | 0.731 | 1.77 µM | 0.61 | 1.18 µM | 0.552 | 1.03 µM | 0.668 | 1.49 | 0.0499 | 1.66 µM
